# Measured values from ChEMBL document CHEMBL1201862, “PubChem BioAssay data set” (2004).
# The source made the active and inactive calls. Cut-off read from the data, not from the text of the source, for most assays here: actives have a measured EC50 and inactives only a lower limit.
# Test system: not listed separately
# Assay: NIH-3T3 fibroblast cytotoxicity, dose response, cytotoxicity control, cell-based, fluorescence, Alamar Blue, secondary assay (AID 2327);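 note: NIH-3T3 mouse fibroblasts cultured with fluconazole at 8 µg/mL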
# Type: functional
# Conditions: not given
row,Structure (SMILES),EC50
1,COc1ccc(CN2C(=O)NC(=O)/C(=C\NNC(=O)c3ccccc3)C2=O)cc1,56 µM (active)

# Test system: not listed separately
# Assay: viability of uninfected HEp-2 cells – cell-based, HTS, cytotoxicity control for RSV inhibitor project, dose response (AID 2410)
# Type: functional
# Conditions: human respiratory syncytial virus
row,Structure (SMILES),CC50
1,O=C(N[C@@H](Cc1ccccc1)C(=O)OCc1ccccc1)c1[nH]cnc1C(=O)N1CCc2ccccc2C1,26.1 µM (active)
2,COc1cc(CNc2ccc(N3CCCC3)cc2)ccc1OCc1ccccc1,13 µM (active)
3,NC(=O)NC1CCCc2c1[nH]c1ccc(Cl)cc21 (stereo not given),18 µM (active)
4,CCc1nn(CCCC(=O)N2CCN(c3cccc(C)c3C)CC2)c(=O)c2cc3occc3n12,17 µM (active)
5,COc1ccc2sc(NC(=O)NC(=O)c3c(Cl)cccc3Cl)nc2c1,17.3 µM (active)

# Target: T1, RNA-binding protein pos-1 (Caenorhabditis elegans, UniProt G5EF15)
# T1 sequence (G5EF15 whole entry): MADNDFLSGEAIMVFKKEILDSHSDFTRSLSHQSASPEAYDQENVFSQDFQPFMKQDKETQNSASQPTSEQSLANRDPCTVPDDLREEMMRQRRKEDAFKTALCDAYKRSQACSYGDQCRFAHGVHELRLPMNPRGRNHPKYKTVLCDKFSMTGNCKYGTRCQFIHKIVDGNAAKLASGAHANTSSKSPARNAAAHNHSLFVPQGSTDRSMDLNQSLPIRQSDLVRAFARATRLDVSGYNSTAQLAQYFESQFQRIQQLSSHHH
# Assay: disruptors of C. elegans POS-1 RNA interaction – biochemical, fluorescence polarization, dose response (AID 1964);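 note: purified POS-1 fused to maltose binding protein made in E. coli; potency of compounds blocking POS-1 binding to fluorescent RNA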
# Conditions: not given
row,Structure (SMILES),EC50
1,CC1(C)CC(=O)C2=C(C1)OC(N)=C(C#N)C2c1cc2c(cc1[N+](=O)[O-])OCO2 (stereo not given),18 µM (active)

# Test system: not listed separately
# Assay: Luminescence Cell-Based Dose Confirmation HTS to Identify Activators of 5'UTR Stem-Loop Driven Alpha-Synuclein mRNA Translation in H4 Neuroglioblastoma Cells. [Related pubchem assays: 1829 (Project Summary), 1814 (Primary HTS)]
# Type: functional
# Conditions: not given
row,Structure (SMILES),EC50
1,O=Nc1c(-c2ccccc2)cc2ccccn12,13.6 µM (active)
2,Cc1cccc(-n2c(N)cc(=O)[nH]c2=S)c1,> 120 µM (not active)
3,O=C(O)C1CCN(C(=O)OCc2ccccc2)CC1,0.602 µM (active)
4,Cc1cccn2c(=O)c(C=O)c(Nc3ccc(S(N)(=O)=O)cc3)nc12,14.8 µM (active)
5,O=C(CSCC(=O)N1CCCCC1)Nc1nc(-c2ccc(Cl)s2)cs1,29.7 µM (active)
6,Cn1c2ccccc2c2ncn(CCC3=CCCCC3)c(=O)c21,24 µM (active)
7,O=C(C[n+]1cc(-c2ccc(F)cc2)n2c1CCC2)N1c2ccccc2Sc2ccccc21,7.4 µM (active)
8,CC(C)(C)C(=O)N1CCN(c2nc3ccc(Cl)cc3s2)CC1,0.369 µM (active)
9,Cc1ccc(-n2nnnc2SCC(=O)Nc2sc(C)c(C)c2C#N)cc1C,15.9 µM (active)

# Test system: not listed separately
# Assay: Luminescence Cell-Based Dose Response HTS to Identify Activators of Luciferase Translation or Activity in H4 […] Cells. [Related pubchem assays: 1829 (Project Summary), 1814 (Primary HTS)]
# Type: functional
# Conditions: not given
row,Structure (SMILES),EC50
1,O=Nc1c(-c2ccccc2)cc2ccccn12,12.1 µM (active)
2,Cc1cccc(-n2c(N)cc(=O)[nH]c2=S)c1,> 120 µM (not active)
3,O=C(O)C1CCN(C(=O)OCc2ccccc2)CC1,87.1 µM (active)
4,Cc1cccn2c(=O)c(C=O)c(Nc3ccc(S(N)(=O)=O)cc3)nc12,26.4 µM (active)
5,O=C(CSCC(=O)N1CCCCC1)Nc1nc(-c2ccc(Cl)s2)cs1,8.35 µM (active)
6,Cn1c2ccccc2c2ncn(CCC3=CCCCC3)c(=O)c21,21.7 µM (active)
7,O=C(C[n+]1cc(-c2ccc(F)cc2)n2c1CCC2)N1c2ccccc2Sc2ccccc21,1.06 µM (active)
8,CC(C)(C)C(=O)N1CCN(c2nc3ccc(Cl)cc3s2)CC1,0.244 µM (active)
9,Cc1ccc(-n2nnnc2SCC(=O)Nc2sc(C)c(C)c2C#N)cc1C,15.6 µM (active)

# Test system: not listed separately
# Assay: cells
# Type: functional, cell-based
# Conditions: not given
row,Structure (SMILES),EC50
1,O=C(Nc1ccc(Cl)cc1)NN1CC(=O)N(c2cccc(C(F)(F)F)c2)CC1=O,> 350 µM (not active)
2,CC1CC(C)CN(S(=O)(=O)c2ccc3c(c2)oc(=O)n3CC(=O)NCCCOC(C)C)C1 (stereo not given),> 350 µM (not active)
3,COC(=O)CNC(=O)CSc1nnc2cc(C)c3ccccc3n12,> 350 µM (not active)
4,Nc1ccnn1-c1ccccc1,> 350 µM (not active)
5,O=C(O)c1ccccc1OCCOc1ccccc1C(=O)O,> 350 µM (not active)
6,O=C(CCCc1ccccc1)Nc1ccccn1,> 350 µM (not active)
7,Cn1c(SCC(=O)Nc2ccccc2)nnc1-c1ccc(NC(=O)CCc2ccccc2)cc1,> 350 µM (not active)

# Test system: H4
# Assay: Luminescence Cell-Based Dose Response HTS to Identify Activators of 5'UTR Stem-Loop Driven Prion Protein mRNA Translation in H4 Neuroglioblastoma Cells. [Related pubchem assays: 1829 (Project Summary), 1814 (Primary HTS)]
# Type: functional
# Conditions: Homo sapiens
row,Structure (SMILES),EC50
1,O=Nc1c(-c2ccccc2)cc2ccccn12,27.4 µM (active)
2,Cc1cccc(-n2c(N)cc(=O)[nH]c2=S)c1,> 120 µM (not active)
3,O=C(O)C1CCN(C(=O)OCc2ccccc2)CC1,6.56 µM (active)
4,Cc1cccn2c(=O)c(C=O)c(Nc3ccc(S(N)(=O)=O)cc3)nc12,> 120 µM (not active)
5,O=C(CSCC(=O)N1CCCCC1)Nc1nc(-c2ccc(Cl)s2)cs1,10.9 µM (active)
6,Cn1c2ccccc2c2ncn(CCC3=CCCCC3)c(=O)c21,29.8 µM (active)
7,O=C(C[n+]1cc(-c2ccc(F)cc2)n2c1CCC2)N1c2ccccc2Sc2ccccc21,9.69 µM (active)
8,CC(C)(C)C(=O)N1CCN(c2nc3ccc(Cl)cc3s2)CC1,15.2 µM (active)
9,Cc1ccc(-n2nnnc2SCC(=O)Nc2sc(C)c(C)c2C#N)cc1C,> 120 µM (not active)

# Target: T2, Zinc finger protein mex-5 (Caenorhabditis elegans, UniProt Q9XUB2)
# T2 sequence (Q9XUB2 whole entry): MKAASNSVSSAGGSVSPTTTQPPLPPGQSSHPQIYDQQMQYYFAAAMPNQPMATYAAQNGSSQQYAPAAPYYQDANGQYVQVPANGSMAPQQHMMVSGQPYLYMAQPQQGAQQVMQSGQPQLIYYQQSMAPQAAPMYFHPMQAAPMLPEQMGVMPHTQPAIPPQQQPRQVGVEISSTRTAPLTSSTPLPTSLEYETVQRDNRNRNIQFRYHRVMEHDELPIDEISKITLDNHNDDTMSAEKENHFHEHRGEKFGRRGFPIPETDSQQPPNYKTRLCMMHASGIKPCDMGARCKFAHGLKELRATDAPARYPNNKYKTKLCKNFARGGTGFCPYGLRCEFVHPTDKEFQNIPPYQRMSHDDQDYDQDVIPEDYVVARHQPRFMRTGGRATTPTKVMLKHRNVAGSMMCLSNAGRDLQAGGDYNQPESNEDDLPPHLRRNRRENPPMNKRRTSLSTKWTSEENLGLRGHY
# Assay: potency of MEX-5 RNA-binding blockers – biochemical, C. elegans, fluorescence polarization, dose response (AID 1960)
# Conditions: not given
row,Structure (SMILES),EC50
1,CC1(C)CC(=O)C2=C(C1)OC(N)=C(C#N)C2c1cc2c(cc1[N+](=O)[O-])OCO2 (stereo not given),14.3 µM (active)

# Test system: not listed separately
# Assay: cells
# Type: functional, cell-based
# Conditions: not given
# Remark: another data set of the same source
row,Structure (SMILES),EC50
1,O=C(Nc1ccc(Cl)cc1)NN1CC(=O)N(c2cccc(C(F)(F)F)c2)CC1=O,> 350 µM (not active)
2,CC1CC(C)CN(S(=O)(=O)c2ccc3c(c2)oc(=O)n3CC(=O)NCCCOC(C)C)C1 (stereo not given),> 350 µM (not active)
3,COC(=O)CNC(=O)CSc1nnc2cc(C)c3ccccc3n12,> 350 µM (not active)
4,Nc1ccnn1-c1ccccc1,> 350 µM (not active)
5,O=C(O)c1ccccc1OCCOc1ccccc1C(=O)O,> 350 µM (not active)
6,O=C(CCCc1ccccc1)Nc1ccccn1,> 350 µM (not active)
7,Cn1c(SCC(=O)Nc2ccccc2)nnc1-c1ccc(NC(=O)CCc2ccccc2)cc1,> 350 µM (not active)

# Target: T3, Corticotropin-releasing factor receptor 2/Corticotropin-releasing factor-binding protein (Homo sapiens, UniProt P24387+Q13324)
# T3 sequence (Q13324 whole entry): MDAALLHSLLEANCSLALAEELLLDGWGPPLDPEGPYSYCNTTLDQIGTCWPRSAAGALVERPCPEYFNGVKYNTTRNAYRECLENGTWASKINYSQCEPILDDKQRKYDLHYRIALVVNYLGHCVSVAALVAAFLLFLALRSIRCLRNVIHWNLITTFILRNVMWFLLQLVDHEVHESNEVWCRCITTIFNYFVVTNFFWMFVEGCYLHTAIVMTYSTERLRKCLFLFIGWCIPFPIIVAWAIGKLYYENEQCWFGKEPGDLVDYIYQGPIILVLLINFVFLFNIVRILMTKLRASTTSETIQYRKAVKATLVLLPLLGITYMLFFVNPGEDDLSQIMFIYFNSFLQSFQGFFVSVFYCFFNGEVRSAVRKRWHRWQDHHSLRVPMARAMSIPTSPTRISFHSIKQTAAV
# T3 sequence (P24387 whole entry): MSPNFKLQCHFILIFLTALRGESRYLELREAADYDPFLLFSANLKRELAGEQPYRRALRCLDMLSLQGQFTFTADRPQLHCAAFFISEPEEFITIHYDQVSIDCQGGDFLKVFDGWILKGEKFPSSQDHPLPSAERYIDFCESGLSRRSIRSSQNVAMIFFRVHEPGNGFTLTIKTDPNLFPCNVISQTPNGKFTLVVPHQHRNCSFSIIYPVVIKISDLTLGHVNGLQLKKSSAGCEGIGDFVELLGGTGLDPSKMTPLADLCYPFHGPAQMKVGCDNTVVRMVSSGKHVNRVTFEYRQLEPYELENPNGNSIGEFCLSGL
# Assay: activators of CRF receptor 2 with binding protein – uHTS hits, confirmation (AID 602473)
# Type: functional
# Conditions: read-out: EC50_Mean
row,Structure (SMILES),EC50
1,CC1(C)CC(=O)C2=C(C1)OC(N)=C(C#N)C2c1cc2c(cc1[N+](=O)[O-])OCO2 (stereo not given),5.48 µM (active)
